Data: PubChem BioAssay AID1918952 (Molecular Pharmacology Branch, DTP, NCI, 2023)

Tested on: LG0703-F948-PDC complex spheroid viability
Experiment: Anticancer human tumor LG0703-F948-PDC patient-derived lung adenocarcinoma cell line growth inhibition
Details: for IC50: curve of first compound; for viability, T/C: stronger effect = lower value
In short: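 Complex spheroids of tumor cells with HUVEC and human MSCs, exposed to iadademstat combined with other agents. Each agent tested in half-log steps from near clinical Cmax (else 10 microM top), DMSO ≤0.25%.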

[1] = second compound 0.1 µM, first compound 0.000316 µM
[2] = second compound 0.1 µM, first compound 0.001 µM
[3] = second compound 0.1 µM, first compound 0.00316 µM
[4] = second compound 0.1 µM, first compound 0.01 µM
[5] = second compound 0.1 µM, first compound 0.0316 µM
[6] = second compound 0.1 µM, first compound 0.1 µM
[7] = second compound 0.316 µM, first compound 0.000316 µM
[8] = second compound 0.316 µM, first compound 0.001 µM
[9] = second compound 0.316 µM, first compound 0.00316 µM
[10] = second compound 0.316 µM, first compound 0.01 µM
[11] = second compound 0.316 µM, first compound 0.0316 µM
[12] = second compound 0.316 µM, first compound 0.1 µM
[13] = second compound 1 µM, first compound 0.000316 µM
[14] = second compound 1 µM, first compound 0.001 µM
[15] = second compound 1 µM, first compound 0.00316 µM
[16] = second compound 1 µM, first compound 0.01 µM
[17] = second compound 1 µM, first compound 0.0316 µM
[18] = second compound 1 µM, first compound 0.1 µM
[19] = second compound 3.16 µM, first compound 0.000316 µM
[20] = second compound 3.16 µM, first compound 0.001 µM
[21] = second compound 3.16 µM, first compound 0.00316 µM
[22] = second compound 3.16 µM, first compound 0.01 µM
[23] = second compound 3.16 µM, first compound 0.0316 µM
[24] = second compound 3.16 µM, first compound 0.1 µM
[25] = second compound 10 µM, first compound 0.000316 µM
[26] = second compound 10 µM, first compound 0.001 µM
[27] = second compound 10 µM, first compound 0.00316 µM
[28] = second compound 10 µM, first compound 0.01 µM
[29] = second compound 10 µM, first compound 0.0316 µM
[30] = second compound 10 µM, first compound 0.1 µM
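Note: spheroids exposed to agents for seven days before readout.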
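Throughout, for viability, T/C: 100% = DMSO vehicle control wells as normalization base.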

Compound: CC(C)CC(NC(=O)C(Cc1ccccc1)NC(=O)c1cnccn1)B(O)O (stereo not given) + NC1CCC(NC2CC2c2ccccc2)CC1
- IC50 (second compound 0.1 µM): < 0.316 nM
- IC50 (second compound 0.316 µM): < 0.316 nM
- IC50 (second compound 1 µM): < 0.316 nM
- IC50 (second compound 3.16 µM): < 0.316 nM
- IC50 (second compound 10 µM): < 0.316 nM
- viability, T/C [1]: 8.14%
- viability, T/C [2]: 0.63%
- viability, T/C [3]: 0.43%
- viability, T/C [4]: 0.05%
- viability, T/C [5]: 0.04%
- viability, T/C [6]: 0.13%
- viability, T/C [7]: 8.59%
- viability, T/C [8]: 1.33%
- viability, T/C [9]: 0.03%
- viability, T/C [10]: 0.82%
- viability, T/C [11]: 0.07%
- viability, T/C [12]: 0.11%
- viability, T/C [13]: 7.45%
- viability, T/C [14]: 0.3%
- viability, T/C [15]: 0.12%
- viability, T/C [16]: 0.06%
- viability, T/C [17]: 0.02%
- viability, T/C [18]: 0.1%
- viability, T/C [19]: 5.46%
- viability, T/C [20]: 0.14%
- viability, T/C [21]: 0.04%
- viability, T/C [22]: 0.1%
- viability, T/C [23]: 0.03%
- viability, T/C [24]: 0.12%
- viability, T/C [25]: 1.9%
- viability, T/C [26]: 0.49%
- viability, T/C [27]: 0.29%
- viability, T/C [28]: 0.18%
- viability, T/C [29]: 0.13%
- viability, T/C [30]: 0.25%

Compound: CC(C)CC(NC(=O)CNC(=O)c1cc(Cl)ccc1Cl)B1OC(=O)CC(CC(=O)O)(C(=O)O)O1 (stereo not given) + NC1CCC(NC2CC2c2ccccc2)CC1
- IC50 (second compound 0.1 µM): 4.54 nM
- IC50 (second compound 0.316 µM): 4.94 nM
- IC50 (second compound 1 µM): 4.29 nM
- IC50 (second compound 3.16 µM): 3.05 nM
- IC50 (second compound 10 µM): 1.98 nM
- viability, T/C [1]: 118%
- viability, T/C [2]: 95.6%
- viability, T/C [3]: 66.7%
- viability, T/C [4]: 19.8%
- viability, T/C [5]: 2.45%
- viability, T/C [6]: 0.73%
- viability, T/C [7]: 104%
- viability, T/C [8]: 102%
- viability, T/C [9]: 69.4%
- viability, T/C [10]: 19%
- viability, T/C [11]: 2.48%
- viability, T/C [12]: 0.54%
- viability, T/C [13]: 118%
- viability, T/C [14]: 115%
- viability, T/C [15]: 60.8%
- viability, T/C [16]: 17%
- viability, T/C [17]: 2.68%
- viability, T/C [18]: 1.21%
- viability, T/C [19]: 112%
- viability, T/C [20]: 127%
- viability, T/C [21]: 47.6%
- viability, T/C [22]: 13.8%
- viability, T/C [23]: 2.43%
- viability, T/C [24]: 0.36%
- viability, T/C [25]: 109%
- viability, T/C [26]: 97.7%
- viability, T/C [27]: 17.4%
- viability, T/C [28]: 6.56%
- viability, T/C [29]: 0.78%
- viability, T/C [30]: 0.48%
